From publication PMC6199251, “Oncolysis with DTT-205 and DTT-304 generates immunological memory in cured animals” (Cell Death & Disease, 2018)

Experiments:
[1] = cited from earlier work
From the text: When added to human cancer cells, DTT-205 or DTT-304 stimulated a necrosis-like disruption of cellular morphology. […] Staining with the red fluorescent lipophilic dye Nile red confirmed the formation of lipid droplets in the cytoplasm of cells treated with DTT-205 or DTT-304 that occurred in a time and dose-dependent fas ...

U2OS cells = experiment: Lipid droplet formation (electron microscopy, Nile Red staining); assay type: cell-based, human; settings: 0.65 to 10 µM, 6 h, epifluorescence microscopy
Procedure: Fig. 1 DTT peptides induce the formation of lipid droplets. Human osteosarcoma U2OS cells were treated with 2.5 µM of either DTT-205 or DTT-304 for 6 h. Cells were fixed and subjected to electron microscopy. The overview micrographs in the upper panel depict necrotic morphologies (N) of some of the treated cells and the high magnification micrographs in the lower panel show the formation of lipid droplets (L) in intact cells. Size bars equals 10 µm (upper panel) and 1 µm (lower panel). Representative images (a) and quantifications (b, c) are depicted (mean ± SD of a minimum of five view fields). The formation of lipid droplets in response to increasing doses from 0.65 to 10 µM DTT peptides was quantified by means of the lipophilic dye Nile Red at 6 h and 24 h post treatment in epifluorescence microscopy. Representative images (d) and quantifications (e, f) are shown (mean ± SD of triplicate assessments, Student’s t test, […], **p < 0.01). Temperature dependency of the lipid droplet formation was assessed by keeping the cell cultures upon treatment with 0.65 to 10 µM DTT-205 (g) and DTT-304 (h) at the indicated temperature for 6 h before Nile Red staining. […]
Figure S2. […] The formation of lipid droplets in response to increasing doses from 0.65 to 10 µM DTT-peptides was quantified by means of the lipophilic dye Nile Red in epifluorescence microscopy. […]

caspase-3 = experiment: Caspase-3 activation (immunostaining of cleaved caspase-3); assay type: cell-based, human; settings: U2OS, 0.65 to 10 µM DTT peptides; staurosporine as positive control
Procedure: Fig. 3 Cell death induced by DTT-205 and DTT-304. Human osteosarcoma U2OS cells were treated with 0.65 to 10 µM DTT peptides for the indicated time and following assessed for the activation of caspase-3 (CASP3). The pan-kinase inhibitor staurosporine (STS) was used as positive control. Representative images (a, b) and quantifications of CASP3 activation (c, d) are depicted while pyknosis was assessed by measuring the decrease in Hoechst 33342-stained nuclear area (e, f) by conventional microscopy (size bar equals 10 µm; mean ± SD of triplicate assessments, Student’s t test, […], **p < 0.01, ***p < 0.001). In order to assess the cell death modality, U2OS cells were pretreated with the ferroptosis inhibitor ferrostatin-1 (FER-1), the pan-caspase inhibitor zVAD-fmk (zVAD) or the antioxidants N-actylcystein (NAC) and reduced glutathione (GSH) before the addition of 2.5 µM of DTT peptides (g, h). […] Mouse embryonic fibroblasts (MEFs) that were either wild type, single- or double knockout for the proapoptotic proteins Bax and/or Bak were treated with 0.65 to 10 µM of DTT-205 or DTT-304 and viability was assessed by means of an exclusion dye in epifluorescence microscopy (k, l; mean ± SD of triplicate assessments. Student’s t test, […], **p < 0.01, ***p < 0.001). […]

Row | Molecule | cytotoxic potential in the presence of serum [1] | formation of lipid droplets (U2OS cells) | caspase-3 activation (fraction of cells positive for mature caspase-3 fragment) (caspase-3)
1 | LTX-315 | lost their cytotoxic potential in the presence of serum | but not the LTX compounds, induced lipid droplets | –
2 | CN[C@@H]1C[C@H]2O[C@@](C)([C@@H]1OC)n1c3ccccc3c3c4c(c5c6ccccc6n2c5c31)C(=O)NC4 [staurosporine] | – | – | a significant fraction of cells
